Results: patent US12655106B2 (Eikonizo Therapeutics, Inc., priority 2021, dated 2026)

What was measured:
Full length Human HDAC8 = target: T1, Full length Human HDAC8 (Homo sapiens, UniProt Q9BY41); assay: Caliper endpoint assay for HDAC enzymatic activity (HDAC8); type: biochemical; conditions: in vitro enzymatic, 30 min pre-incubation, 1 μM substrate peptide
T1 construct: Full length Human HDAC8; HIS (N); host or cells: baculovirus expression system
T1 sequence (Q9BY41 1-377): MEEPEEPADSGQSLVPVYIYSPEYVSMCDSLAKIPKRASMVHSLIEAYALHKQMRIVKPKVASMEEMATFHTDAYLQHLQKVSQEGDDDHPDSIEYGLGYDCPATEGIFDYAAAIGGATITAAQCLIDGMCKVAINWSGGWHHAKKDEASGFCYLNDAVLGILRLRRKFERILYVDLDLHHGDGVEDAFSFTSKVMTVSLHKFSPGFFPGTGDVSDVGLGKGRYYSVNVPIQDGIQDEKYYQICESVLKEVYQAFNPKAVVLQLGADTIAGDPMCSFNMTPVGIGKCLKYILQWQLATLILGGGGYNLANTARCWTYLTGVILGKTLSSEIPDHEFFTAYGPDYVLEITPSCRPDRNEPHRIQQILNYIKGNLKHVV

Full length Human HDAC6 = target: T2, Full length Human HDAC6 (Homo sapiens, UniProt Q9UBN7); assay: Caliper endpoint assay for HDAC enzymatic activity (HDAC6); type: biochemical; conditions: for IC50: in vitro enzymatic, Caliper endpoint assay, 30 min pre-incubation, 1 μM substrate peptide; for Selectivity (6 v 8): ratio of HDAC8 IC50/HDAC6 IC50
T2 construct: Full length Human HDAC6; FLAG (C); host or cells: baculovirus expression system
T2 sequence (Q9UBN7 1-1215): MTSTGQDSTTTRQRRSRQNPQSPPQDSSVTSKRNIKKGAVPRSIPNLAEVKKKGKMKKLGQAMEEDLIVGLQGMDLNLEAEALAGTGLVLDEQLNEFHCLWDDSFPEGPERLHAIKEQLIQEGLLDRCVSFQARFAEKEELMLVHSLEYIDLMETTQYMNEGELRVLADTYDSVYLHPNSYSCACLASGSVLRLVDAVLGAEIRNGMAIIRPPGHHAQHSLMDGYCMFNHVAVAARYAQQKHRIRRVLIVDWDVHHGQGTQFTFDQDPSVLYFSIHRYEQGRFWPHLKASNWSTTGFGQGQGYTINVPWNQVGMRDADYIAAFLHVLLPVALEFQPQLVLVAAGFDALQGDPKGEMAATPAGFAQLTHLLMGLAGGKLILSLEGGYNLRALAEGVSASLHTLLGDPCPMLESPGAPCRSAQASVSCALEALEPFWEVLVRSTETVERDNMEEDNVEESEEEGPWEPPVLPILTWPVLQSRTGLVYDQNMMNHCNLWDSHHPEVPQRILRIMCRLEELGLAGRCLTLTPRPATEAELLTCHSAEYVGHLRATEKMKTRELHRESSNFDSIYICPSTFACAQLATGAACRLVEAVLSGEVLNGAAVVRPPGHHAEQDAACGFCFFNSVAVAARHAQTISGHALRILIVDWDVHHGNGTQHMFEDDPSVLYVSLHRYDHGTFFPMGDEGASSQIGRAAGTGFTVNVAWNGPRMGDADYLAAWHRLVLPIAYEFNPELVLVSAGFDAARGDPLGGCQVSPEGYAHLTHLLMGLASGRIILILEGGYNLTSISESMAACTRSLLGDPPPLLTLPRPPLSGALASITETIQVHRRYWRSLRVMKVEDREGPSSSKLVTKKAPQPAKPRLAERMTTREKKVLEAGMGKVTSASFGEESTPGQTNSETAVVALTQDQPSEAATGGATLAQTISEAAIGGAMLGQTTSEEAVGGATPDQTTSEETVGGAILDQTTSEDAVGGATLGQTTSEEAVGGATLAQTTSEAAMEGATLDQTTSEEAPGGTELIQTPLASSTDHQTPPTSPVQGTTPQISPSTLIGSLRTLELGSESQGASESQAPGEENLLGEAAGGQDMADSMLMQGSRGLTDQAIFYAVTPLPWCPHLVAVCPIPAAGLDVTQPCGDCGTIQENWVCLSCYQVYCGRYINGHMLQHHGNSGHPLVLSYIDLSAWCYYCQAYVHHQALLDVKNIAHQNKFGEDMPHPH

Row | Structure (SMILES) | IC50 (Full length Human HDAC8) [µM] | IC50 (Full length Human HDAC6) [µM] | Selectivity (6 v 8) (Full length Human HDAC6)
1 | O=C(NO)c1cc(F)c2c(c1)CCN([C@H]1C[C@]3(CCCN(C4CC4)C3)C1)C2 (single isomer, unassigned) [Compound 345, 2-((2r,4s)-6-cyclopropyl-6-azaspiro[3.5]nonan-2-yl)-8-fluoro-N-hydroxy-1,2,3,4-tetrahydroisoquinoline-6-carboxamide] | 1 to 10 | 0.001 to 0.1 | IV (IV: >100-1000)
2 | CC(=O)N1CC2(CC(N3CCc4cc(C(=O)NO)cc(F)c4C3)C2)C1 [Compound 292, 2-(2-acetyl-2-azaspiro[3.3]heptan-6-yl)-8-fluoro-N-hydroxy-1,2,3,4-tetrahydroisoquinoline-6-carboxamide] | 10 to 100 | 0.001 to 0.1 | IV (IV: >100-1000)
3 | O=C(NO)c1cc(F)c2c(c1)CCN(C1CCC13CN(C1CC1)C3)C2 (centres unmarked) [Compound 303, 2-(2-cyclopropyl-2-azaspiro[3.3]heptan-7-yl)-8-fluoro-3,4-dihydro-1H-isoquinoline-6-carbohydroxamic acid] | 1 to 10 | 0.001 to 0.1 | III (III: >10-100)
4 | CC(=O)N1CC2(C[C@@H](N3CCc4cc(C(=O)NO)cc(F)c4C3)CCO2)C1 (single isomer, unassigned) [Compound 454] | 10 to 100 | 0.001 to 0.1 | IV (IV: >100-1000)
5 | O=C(NO)c1ccc2c(c1)C[C@H]1COCCN1C2 [Compound 132] | 1 to 10 | 0.001 to 0.1 | IV (IV: >100-1000)
6 | CN1CCC2(CC1)CC(N1CCc3cc(C(=O)NO)cc(F)c3C1)C2 [Compound 198, 8-fluoro-N-hydroxy-2-(7-methyl-7-azaspiro[3.5]nonan-2-yl)-1,2,3,4-tetrahydroisoquinoline-6-carboxamide] | 10 to 100 | 0.001 to 0.1 | IV (IV: >100-1000)
7 | O=C(NO)c1cc(F)c2c(c1)CCN(C[C@@H]1CCC3(CCCCC3)C1)C2 (single isomer, unassigned) [Compound 107] | 10 to 100 | 0.001 to 0.1 | 
8 | O=C(NO)c1cc(F)c2c(c1)CCN(C1CCC13CCN(C1CC1)CC3)C2 (centres unmarked) [Compound 359, 2-(7-cyclopropyl-7-azaspiro[3.5]nonan-3-yl)-8-fluoro-3,4-dihydro-1H-isoquinoline-6-carbohydroxamic acid] | 1 to 10 | 0.1 to 1 | III (III: >10-100)
9 | O=C(NO)c1cc(F)c2c(c1)CCN([C@H]1C[C@@]3(CCCN(C4CC4)C3)C1)C2 (single isomer, unassigned) [Compound 346, 2-((2s,4r)-6-cyclopropyl-6-azaspiro[3.5]nonan-2-yl)-8-fluoro-N-hydroxy-1,2,3,4-tetrahydroisoquinoline-6-carboxamide] | 1 to 10 | 0.001 to 0.1 | IV (IV: >100-1000)
10 | O=C(NO)c1cc(F)c2c(c1)CCN([C@@H]1CC[C@@]13CCOC3)C2 (single isomer, unassigned) [Compound 317] | 10 to 100 | 0.001 to 0.1 | IV (IV: >100-1000)
11 | CC[C@H]1Cc2c(F)cc(C(=O)NO)cc2CN1C1CC2(C1)CN(C)C2 (single isomer, unassigned) [Compound 585] | 1 to 10 | 0.1 to 1 | III (III: >10-100)
12 | CC[C@@H]1Cc2c(F)cc(C(=O)NO)cc2CN1C[C@@H]1CCCCO1 (single isomer, unassigned) [Compound 228] | 1 to 10 | 0.001 to 0.1 | III (III: >10-100)
13 | CC[C@H]1Cc2c(F)cc(C(=O)NO)cc2CN1C1COC1 (single isomer, unassigned) [Compound 601] | 10 to 100 | 0.001 to 0.1 | IV (IV: >100-1000)
14 | CC[C@H]1Cc2c(F)cc(C(=O)NO)cc2CN1C1CC2(CCN(C(C)=O)CC2)C1 (single isomer, unassigned) [Compound 603] | 10 to 100 | 0.1 to 1 | IV (IV: >100-1000)
15 | O=C(NO)c1cc(F)c2c(c1)CCN(C1CC3(C1)CN(C1CC1)C3)C2 [Compound 291, 2-(2-cyclopropyl-2-azaspiro[3.3]heptan-6-yl)-8-fluoro-N-hydroxy-1,2,3,4-tetrahydroisoquinoline-6-carboxamide] | 1 to 10 | 0.001 to 0.1 | IV (IV: >100-1000)
